Laboratory results: patent publication EP4745135A1 (Gluetacs Therapeutics (Shanghai) Co., Ltd., priority 2023, dated 2025)

Key:
CK1α = biological target: T1, CK1α (Homo sapiens, UniProt P48729+Q96SW2); assay: Western blot, degradation of substrate protein in hPBMCs; assay type: cell-based; details: Western blot, 24 hours of compound treatment, compounds tested at 50 nM and 500 nM (concentration for the table not stated)
T1 construct: effects of the compounds of the present disclosure on the expression of target proteins in cells; endogenous in cells; host or cells: human PBMCs (Milecell Biotechnologies)
T1 sequence (P48729 whole entry): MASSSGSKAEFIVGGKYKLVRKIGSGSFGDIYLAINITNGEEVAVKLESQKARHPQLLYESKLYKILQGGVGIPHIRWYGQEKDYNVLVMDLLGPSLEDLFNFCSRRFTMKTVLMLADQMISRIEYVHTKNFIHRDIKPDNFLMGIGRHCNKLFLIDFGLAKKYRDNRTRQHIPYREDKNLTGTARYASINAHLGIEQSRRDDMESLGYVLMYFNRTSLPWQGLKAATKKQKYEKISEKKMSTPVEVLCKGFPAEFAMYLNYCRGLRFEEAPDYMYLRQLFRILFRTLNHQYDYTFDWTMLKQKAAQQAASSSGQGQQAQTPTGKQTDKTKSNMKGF
T1 sequence (Q96SW2 whole entry): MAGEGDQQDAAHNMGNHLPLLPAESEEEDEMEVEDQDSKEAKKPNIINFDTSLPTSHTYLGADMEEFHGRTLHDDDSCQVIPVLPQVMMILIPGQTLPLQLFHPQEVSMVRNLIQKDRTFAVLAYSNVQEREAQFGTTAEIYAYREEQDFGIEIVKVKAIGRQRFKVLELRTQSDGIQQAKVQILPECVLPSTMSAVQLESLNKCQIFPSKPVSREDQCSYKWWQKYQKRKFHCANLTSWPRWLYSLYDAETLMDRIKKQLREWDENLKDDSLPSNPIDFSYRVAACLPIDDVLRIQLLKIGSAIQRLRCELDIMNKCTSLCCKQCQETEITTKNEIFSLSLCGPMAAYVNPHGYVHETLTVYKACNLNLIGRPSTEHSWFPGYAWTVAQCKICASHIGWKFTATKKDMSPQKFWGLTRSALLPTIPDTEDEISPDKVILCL
T1 sequence (Q16531 whole entry partner): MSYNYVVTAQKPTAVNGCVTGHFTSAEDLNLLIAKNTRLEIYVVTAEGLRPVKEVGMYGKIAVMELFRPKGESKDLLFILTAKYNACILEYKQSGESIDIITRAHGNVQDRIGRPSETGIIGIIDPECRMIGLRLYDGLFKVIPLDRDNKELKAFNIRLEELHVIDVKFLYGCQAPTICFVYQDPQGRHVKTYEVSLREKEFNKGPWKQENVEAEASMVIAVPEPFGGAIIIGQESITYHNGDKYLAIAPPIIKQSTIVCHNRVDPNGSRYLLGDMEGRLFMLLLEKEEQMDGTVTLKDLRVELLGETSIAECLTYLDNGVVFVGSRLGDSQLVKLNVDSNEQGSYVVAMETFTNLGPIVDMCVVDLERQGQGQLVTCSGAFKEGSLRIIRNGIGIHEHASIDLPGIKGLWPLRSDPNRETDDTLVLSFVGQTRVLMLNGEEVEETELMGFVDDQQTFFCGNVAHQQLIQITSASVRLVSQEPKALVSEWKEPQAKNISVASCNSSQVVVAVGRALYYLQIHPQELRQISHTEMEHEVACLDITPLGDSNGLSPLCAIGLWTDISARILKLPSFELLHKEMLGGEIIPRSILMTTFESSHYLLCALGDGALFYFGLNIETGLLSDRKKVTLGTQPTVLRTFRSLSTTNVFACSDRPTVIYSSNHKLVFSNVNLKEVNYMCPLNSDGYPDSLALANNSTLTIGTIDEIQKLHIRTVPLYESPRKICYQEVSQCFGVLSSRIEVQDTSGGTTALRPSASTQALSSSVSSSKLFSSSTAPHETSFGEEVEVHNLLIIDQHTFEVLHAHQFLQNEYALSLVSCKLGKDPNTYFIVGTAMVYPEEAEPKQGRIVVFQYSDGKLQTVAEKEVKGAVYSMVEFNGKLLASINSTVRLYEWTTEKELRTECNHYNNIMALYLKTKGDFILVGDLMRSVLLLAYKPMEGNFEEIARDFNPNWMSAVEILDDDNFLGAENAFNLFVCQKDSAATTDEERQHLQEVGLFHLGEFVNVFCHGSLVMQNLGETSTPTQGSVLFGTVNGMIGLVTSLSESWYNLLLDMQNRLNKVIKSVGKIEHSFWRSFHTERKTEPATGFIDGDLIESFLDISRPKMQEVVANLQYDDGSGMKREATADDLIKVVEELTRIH

IKZF1 = biological target: T2, IKZF1 (Homo sapiens, UniProt Q13422+Q96SW2); assay: as above; assay type: cell-based; details: Western blot, 24 hours of compound treatment, compounds tested at 50 nM and 500 nM (concentration for the table not stated)
T2 construct: effects of the compounds of the present disclosure on the expression of target proteins in cells; endogenous in cells; host or cells: human PBMCs (Milecell Biotechnologies)
T2 sequence (Q13422 whole entry): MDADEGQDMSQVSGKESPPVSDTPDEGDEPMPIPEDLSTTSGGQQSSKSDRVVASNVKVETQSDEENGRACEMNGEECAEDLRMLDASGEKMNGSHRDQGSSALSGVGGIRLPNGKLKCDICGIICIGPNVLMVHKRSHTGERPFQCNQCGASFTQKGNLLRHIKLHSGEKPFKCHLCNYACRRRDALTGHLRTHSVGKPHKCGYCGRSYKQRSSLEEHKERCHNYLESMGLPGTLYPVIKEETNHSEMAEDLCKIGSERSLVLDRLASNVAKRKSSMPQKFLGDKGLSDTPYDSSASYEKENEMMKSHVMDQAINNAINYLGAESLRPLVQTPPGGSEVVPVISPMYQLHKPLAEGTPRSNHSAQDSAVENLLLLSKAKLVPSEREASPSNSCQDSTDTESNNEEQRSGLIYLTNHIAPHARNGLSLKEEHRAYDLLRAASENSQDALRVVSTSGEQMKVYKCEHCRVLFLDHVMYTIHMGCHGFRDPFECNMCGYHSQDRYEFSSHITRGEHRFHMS
T2 sequence (Q96SW2 whole entry): as the sequence (Q96SW2 whole entry) above
T2 sequence (Q16531 whole entry partner): as the sequence (Q16531 whole entry partner) above

IKZF2 = biological target: T3, IKZF2 (Homo sapiens, UniProt Q96SW2+Q9UKS7); assay: as above; assay type: cell-based; details: Western blot, 24 hours of compound treatment, compounds tested at 50 nM and 500 nM (concentration for the table not stated)
T3 construct: effects of the compounds of the present disclosure on the expression of target proteins in cells; endogenous in cells; host or cells: human PBMCs (Milecell Biotechnologies)
T3 sequence (Q9UKS7 whole entry): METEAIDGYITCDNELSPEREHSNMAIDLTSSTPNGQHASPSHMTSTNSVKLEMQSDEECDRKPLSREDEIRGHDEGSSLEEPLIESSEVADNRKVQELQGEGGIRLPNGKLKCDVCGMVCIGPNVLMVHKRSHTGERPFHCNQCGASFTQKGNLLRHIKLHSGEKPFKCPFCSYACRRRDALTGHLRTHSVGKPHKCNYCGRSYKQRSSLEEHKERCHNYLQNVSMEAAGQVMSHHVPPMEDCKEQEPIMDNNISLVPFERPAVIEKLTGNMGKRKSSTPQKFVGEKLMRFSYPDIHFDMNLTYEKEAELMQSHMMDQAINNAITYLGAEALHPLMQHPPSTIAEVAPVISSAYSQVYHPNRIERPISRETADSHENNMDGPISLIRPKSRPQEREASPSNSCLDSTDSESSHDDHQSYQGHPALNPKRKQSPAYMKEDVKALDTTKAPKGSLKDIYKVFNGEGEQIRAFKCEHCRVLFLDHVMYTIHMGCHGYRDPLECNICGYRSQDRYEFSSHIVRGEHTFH
T3 sequence (Q96SW2 whole entry): as the sequence (Q96SW2 whole entry) above
T3 sequence (Q16531 whole entry partner): as the sequence (Q16531 whole entry partner) above

IKZF3 = biological target: T4, IKZF3 (Homo sapiens, UniProt Q96SW2+Q9UKT9); assay: as above; assay type: cell-based; details: Western blot, 24 hours of compound treatment, compounds tested at 50 nM and 500 nM (concentration for the table not stated)
T4 construct: effects of the compounds of the present disclosure on the expression of target proteins in cells; endogenous in cells; host or cells: human PBMCs (Milecell Biotechnologies)
T4 sequence (Q9UKT9 whole entry): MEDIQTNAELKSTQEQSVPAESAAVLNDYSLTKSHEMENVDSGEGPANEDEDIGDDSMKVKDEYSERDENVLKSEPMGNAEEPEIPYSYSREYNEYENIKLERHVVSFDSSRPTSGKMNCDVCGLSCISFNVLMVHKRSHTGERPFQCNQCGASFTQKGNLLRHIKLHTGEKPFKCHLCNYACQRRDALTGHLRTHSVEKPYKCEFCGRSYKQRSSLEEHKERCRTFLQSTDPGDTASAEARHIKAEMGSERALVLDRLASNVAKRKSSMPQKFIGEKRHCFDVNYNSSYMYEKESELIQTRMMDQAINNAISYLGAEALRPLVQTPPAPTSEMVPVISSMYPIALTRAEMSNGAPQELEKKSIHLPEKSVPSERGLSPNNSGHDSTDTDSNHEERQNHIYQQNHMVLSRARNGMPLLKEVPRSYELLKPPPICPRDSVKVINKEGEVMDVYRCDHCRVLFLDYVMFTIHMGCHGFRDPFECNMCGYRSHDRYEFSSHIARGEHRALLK
T4 sequence (Q96SW2 whole entry): as the sequence (Q96SW2 whole entry) above
T4 sequence (Q16531 whole entry partner): as the sequence (Q16531 whole entry partner) above

WEE1 = biological target: T5, WEE1 (Homo sapiens, UniProt P30291+Q96SW2); assay: as above; assay type: cell-based; details: Western blot, 24 hours of compound treatment, compounds tested at 50 nM and 500 nM (concentration for the table not stated)
T5 construct: effects of the compounds of the present disclosure on the expression of target proteins in cells; endogenous in cells; host or cells: human PBMCs (Milecell Biotechnologies)
T5 sequence (P30291 whole entry): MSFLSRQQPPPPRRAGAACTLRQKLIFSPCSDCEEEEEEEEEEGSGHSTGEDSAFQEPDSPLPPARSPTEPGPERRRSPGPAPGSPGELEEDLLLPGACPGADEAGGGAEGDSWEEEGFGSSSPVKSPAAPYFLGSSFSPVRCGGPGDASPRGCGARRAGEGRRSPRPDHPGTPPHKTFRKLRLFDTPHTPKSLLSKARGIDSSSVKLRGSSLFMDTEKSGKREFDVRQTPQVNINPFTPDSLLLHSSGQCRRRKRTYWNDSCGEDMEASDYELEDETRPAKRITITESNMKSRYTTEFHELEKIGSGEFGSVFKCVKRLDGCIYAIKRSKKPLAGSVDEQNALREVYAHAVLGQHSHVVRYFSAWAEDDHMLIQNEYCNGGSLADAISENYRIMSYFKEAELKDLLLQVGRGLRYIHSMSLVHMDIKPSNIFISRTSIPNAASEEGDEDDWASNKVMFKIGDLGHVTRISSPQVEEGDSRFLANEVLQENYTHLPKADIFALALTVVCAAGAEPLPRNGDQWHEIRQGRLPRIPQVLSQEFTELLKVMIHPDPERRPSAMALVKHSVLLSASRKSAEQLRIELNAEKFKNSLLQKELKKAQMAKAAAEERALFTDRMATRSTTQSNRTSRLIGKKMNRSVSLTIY
T5 sequence (Q96SW2 whole entry): as the sequence (Q96SW2 whole entry) above
T5 sequence (Q16531 whole entry partner): as the sequence (Q16531 whole entry partner) above

GSPT1 = assay: as above; assay type: cell-based, Human; details: Western blot, 24 hours of compound treatment, compounds tested at 50 nM and 500 nM (concentration for the table not stated)
[1] = biological target: T6, human Cereblon WT GST-tagged protein (Homo sapiens, UniProt Q96SW2); assay: CRBN-binding affinity, HTRF (CEREBLON BINDING kit); details: for inhibition at 0.5 µM: read-out: Inhibition Rate at 0.5 µM (%); for inhibition at 2 µM: read-out: Inhibition Rate at 2 µM (%)
T6 construct: purchased CISBIO 64BDCRBNPEH
T6 sequence (Q96SW2 whole entry): as the sequence (Q96SW2 whole entry) above

Row | Compound | CK1α substrate protein remaining % (CK1α) | IKZF 1 substrate protein remaining % (IKZF1) | IKZF2 substrate protein remaining % (IKZF2) | IKZF3 substrate protein remaining % (IKZF3) | Wee1 substrate protein remaining % (WEE1) | GSPT1 substrate protein remaining % (GSPT1) | inhibition at 0.5 µM [1] [%] | inhibition at 2 µM [1] [%]
1 | O=C1CCC(N2Cc3c(CN4CCC(n5cnc6cc(F)ccc65)CC4)cccc3C2=S)C(=O)N1 (stereo not shown) [GT-08842, 3-(4-((4-(5-fluoro-1H-benzo[d]imidazol-1-yl)piperidin-1-yl)methyl)-1-thioxoisoindolin-2-yl)piperidine-2,6-dione] | B (80%< substrate protein remaining %≤ 100%) | B (80%< substrate protein remaining %≤ 100%) | B (80%< substrate protein remaining %≤ 100%) | B (80%< substrate protein remaining %≤ 100%) | A (0% ≤ substrate protein remaining % ≤ 80%) | B (80%< substrate protein remaining %≤ 100%) | 40 to 53 | 80 to 100
2 | O=C1CCC(N2Cc3cc(CN4CCN(c5nccc(F)c5F)CC4)ccc3C2=S)C(=O)N1 (stereo not shown) [GT-09235, 3-(5-((4-(3,4-difluoropyridin-2-yl)piperazin-1-yl)methyl)-1-thioxoisoindolin-2-yl)piperidine-2,6-dione] | A (0% ≤ substrate protein remaining % ≤ 80%) | B (80%< substrate protein remaining %≤ 100%) | A (0% ≤ substrate protein remaining % ≤ 80%) | A (0% ≤ substrate protein remaining % ≤ 80%) | B (80%< substrate protein remaining %≤ 100%) | A (0% ≤ substrate protein remaining % ≤ 80%) | 60 to 80 | 80 to 100
3 | O=C1CCC(N2Cc3c(CN4CCN(c5ccc(F)c(F)c5)CC4)cccc3C2=S)C(=O)N1 (stereo not shown) [GT-08631, 3-(4-((4-(3,4-difluorophenyl)piperazin-1-yl)methyl)-1-thioxoisoindolin-2-yl)piperidine-2,6-dione] | B (80%< substrate protein remaining %≤ 100%) | B (80%< substrate protein remaining %≤ 100%) | B (80%< substrate protein remaining %≤ 100%) | B (80%< substrate protein remaining %≤ 100%) | A (0% ≤ substrate protein remaining % ≤ 80%) | B (80%< substrate protein remaining %≤ 100%) | 60 to 80 | 80 to 100
4 | Cc1cc(N2CCN(Cc3ccc4c(c3)CN(C3CCC(=O)NC3=O)C4=S)CC2)ccn1 (stereo not shown) [GT-09234, 3-(5-((4-(2-methylpyridin-4-yl)piperazin-1-yl)methyl)-1-thioxoisoindolin-2-yl)piperidine-2,6-dione] | A (0% ≤ substrate protein remaining % ≤ 80%) | A (0% ≤ substrate protein remaining % ≤ 80%) | A (0% ≤ substrate protein remaining % ≤ 80%) | A (0% ≤ substrate protein remaining % ≤ 80%) | A (0% ≤ substrate protein remaining % ≤ 80%) | A (0% ≤ substrate protein remaining % ≤ 80%) | 60 to 80 | 80 to 100
5 | O=C1CCC(N2Cc3cc(CN4CCN(c5cc(F)ccc5F)CC4)ccc3C2=S)C(=O)N1 (stereo not shown) [GT-08625, 3-(5-((4-(2,5-difluorophenyl)piperazin-1-yl)methyl)-1-thioxoisoindolin-2-yl)piperidine-2,6-dione] | A (0% ≤ substrate protein remaining % ≤ 80%) | B (80%< substrate protein remaining %≤ 100%) | B (80%< substrate protein remaining %≤ 100%) | B (80%< substrate protein remaining %≤ 100%) | B (80%< substrate protein remaining %≤ 100%) | A (0% ≤ substrate protein remaining % ≤ 80%) | 60 to 80 | 80 to 100
